From patent publication US11306101B2 (Celgene Corporation, priority 2019, dated 2022)

Target: T1, CK1α (Homo sapiens, UniProt P48729+Q96SW2)
T1 construct: expressed in transfected cells
Experiment: CK1α ePL degradation assay in MDS-L cells
Format: cell-based
Settings: MDS-L cells expressing ePL-tagged CK1α; for DC50: concentration giving 50% CK1α degradation vs DMSO control; for Y: lowest measured CK1α level normalized to DMSO control
Experimental: The following is an example of an assay that can be used to determine the CK1α degradation activity of Isoindolinone Carboxamide Compounds in a cell line, for example, the MDS-L cell line.
Compounds were dispensed by an acoustic dispenser (ATS acoustic transfer system from EDC Biosystems) into a 384-well in a 10 point dose-response curve using 3-fold dilutions starting at 10 μM and going down to 0.0005 μM in DMSO. […] Assay plates were incubated at 37° C. with 5% CO2 for the indicated times. At the different time points, 25 μL of the InCELL Hunter™ Detection Reagent Working Solution (catalog number 96-0002, DiscoverX, Fremont, Calif.) was added to each well and incubated at RT for 30 min protected from light. After 30 min, luminescence was read on a PHERAstar luminometer (BMG LABTECH, Cary, N.C.).
CK1α levels in compound-treated wells were normalized to that of DMSO control and expressed as percent of control (PoC) (y).
The lowest measured CK1α level normalized to DMSO control in response to compound treatment, termed Y value, was used to characterize the compound-mediated CK1α degradation efficiency.

T1 sequence (P48729 whole entry): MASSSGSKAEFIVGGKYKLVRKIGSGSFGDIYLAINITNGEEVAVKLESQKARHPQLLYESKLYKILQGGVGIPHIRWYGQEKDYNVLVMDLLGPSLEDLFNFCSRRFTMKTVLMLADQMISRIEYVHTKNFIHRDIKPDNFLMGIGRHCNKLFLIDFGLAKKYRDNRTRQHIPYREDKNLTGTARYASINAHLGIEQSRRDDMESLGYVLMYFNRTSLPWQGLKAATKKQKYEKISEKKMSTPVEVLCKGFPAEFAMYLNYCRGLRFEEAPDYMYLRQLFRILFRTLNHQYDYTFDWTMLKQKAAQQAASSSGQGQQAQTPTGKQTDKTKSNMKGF
T1 sequence (Q96SW2 whole entry): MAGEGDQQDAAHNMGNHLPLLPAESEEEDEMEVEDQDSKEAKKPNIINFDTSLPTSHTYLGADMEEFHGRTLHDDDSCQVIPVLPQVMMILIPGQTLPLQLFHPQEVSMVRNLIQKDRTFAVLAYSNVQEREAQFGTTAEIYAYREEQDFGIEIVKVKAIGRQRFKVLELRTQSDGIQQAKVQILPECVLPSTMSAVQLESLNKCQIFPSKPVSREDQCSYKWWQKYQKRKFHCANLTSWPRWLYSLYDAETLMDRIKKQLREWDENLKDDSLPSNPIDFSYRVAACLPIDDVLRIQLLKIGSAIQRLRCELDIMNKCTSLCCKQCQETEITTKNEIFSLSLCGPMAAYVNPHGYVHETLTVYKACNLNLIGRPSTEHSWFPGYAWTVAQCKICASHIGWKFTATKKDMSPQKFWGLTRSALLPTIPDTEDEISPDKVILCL
T1 sequence (Q16531 whole entry partner): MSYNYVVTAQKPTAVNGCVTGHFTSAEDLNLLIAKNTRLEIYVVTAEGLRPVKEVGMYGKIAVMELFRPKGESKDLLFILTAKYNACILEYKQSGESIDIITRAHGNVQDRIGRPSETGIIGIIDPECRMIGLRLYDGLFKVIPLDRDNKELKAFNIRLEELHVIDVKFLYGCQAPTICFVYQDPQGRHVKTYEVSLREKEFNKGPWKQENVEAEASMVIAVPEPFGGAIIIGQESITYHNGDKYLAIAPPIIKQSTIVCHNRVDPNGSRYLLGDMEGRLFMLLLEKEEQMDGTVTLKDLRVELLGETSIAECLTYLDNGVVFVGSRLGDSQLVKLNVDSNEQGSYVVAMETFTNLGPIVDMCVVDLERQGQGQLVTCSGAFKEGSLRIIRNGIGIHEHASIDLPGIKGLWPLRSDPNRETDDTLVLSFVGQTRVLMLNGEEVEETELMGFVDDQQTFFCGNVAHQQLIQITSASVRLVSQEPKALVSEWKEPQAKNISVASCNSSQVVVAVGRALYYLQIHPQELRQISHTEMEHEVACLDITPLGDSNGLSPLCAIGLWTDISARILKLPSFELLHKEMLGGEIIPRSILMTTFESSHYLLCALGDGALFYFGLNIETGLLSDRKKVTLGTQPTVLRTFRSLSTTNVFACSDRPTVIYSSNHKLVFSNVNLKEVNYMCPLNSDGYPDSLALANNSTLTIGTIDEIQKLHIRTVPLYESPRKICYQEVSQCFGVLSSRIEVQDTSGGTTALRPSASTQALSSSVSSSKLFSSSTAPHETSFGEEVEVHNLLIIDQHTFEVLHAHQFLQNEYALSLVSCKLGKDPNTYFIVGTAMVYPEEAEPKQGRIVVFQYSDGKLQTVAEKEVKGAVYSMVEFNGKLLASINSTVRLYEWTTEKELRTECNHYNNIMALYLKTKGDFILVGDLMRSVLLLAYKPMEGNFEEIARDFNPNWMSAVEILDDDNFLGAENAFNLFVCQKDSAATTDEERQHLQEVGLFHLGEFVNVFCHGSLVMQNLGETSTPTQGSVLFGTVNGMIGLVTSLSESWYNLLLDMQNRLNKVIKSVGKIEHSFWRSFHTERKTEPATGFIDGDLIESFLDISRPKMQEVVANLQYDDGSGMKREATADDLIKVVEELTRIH

Row | SMILES | DC50 | Y
1 | O=C1CCC(N2Cc3cc(C(=O)N[C@H](c4cccc(C(F)(F)F)c4)C(F)(F)F)ccc3C2=O)C(=O)N1 (stereo partly drawn) [Example 52, 2-(2,6-dioxopiperidin-3-yl)-1-oxo-N-((R)-2,2,2-trifluoro-1-(3-(trifluoromethyl)phenyl)ethyl)isoindoline-5-carboxamide] | < 100 nM | * (a Y value (shown as *) of 0<Y≤20%)
2 | C[C@H](NC(=O)c1ccc2c(c1)CN(C1CCC(=O)NC1=O)C2=O)c1ccc(Cl)cc1 (stereo partly shown) [Example 8] | < 100 nM | * (a Y value (shown as *) of 0<Y≤20%)
3 | O=C1CCC(N2Cc3c(ccc(C(=O)N[C@H](c4cccc(C(F)(F)F)c4)C(F)(F)F)c3F)C2=O)C(=O)N1 (stereo partly drawn) [Example 97, 2-(2,6-dioxopiperidin-3-yl)-4-fluoro-1-oxo-N-((R)-2,2,2-trifluoro-1-(3-(trifluoromethyl)phenyl)ethyl)isoindoline-5-carboxamide] | 100 to 500 nM | ** (a Y value (shown as**) of 20%<Y≤35%)
4 | CC(F)(F)C(NC(=O)c1ccc2c(c1)CN(C1CCC(=O)NC1=O)C2=O)c1ccc(F)cc1 (stereo not shown) [Example 174, N-(2,2-difluoro-1-(4-fluorophenyl)propyl)-2-(2,6-dioxopiperidin-3-yl)-1-oxoisoindoline-5-carboxamide] | < 100 nM | * (a Y value (shown as *) of 0<Y≤20%)
5 | O=C1CCC(N2Cc3c(ccc(C(=O)N[C@H](c4ccc(F)cc4)C(F)(F)F)c3F)C2=O)C(=O)N1 (stereo partly drawn) [Example 96, 2-(2,6-dioxopiperidin-3-yl)-4-fluoro-1-oxo-N-((R)-2,2,2-trifluoro-1-(4-fluorophenyl)ethyl)isoindoline-5-carboxamide] | < 100 nM | * (a Y value (shown as *) of 0<Y≤20%)
6 | Cn1nccc1[C@@H](NC(=O)c1ccc2c(c1)CN(C1CCC(=O)NC1=O)C2=O)C(F)(F)F (stereo partly drawn) [Example 69, 2-(2,6-dioxopiperidin-3-yl)-1-oxo-N-((R)-2,2,2-trifluoro-1-(1-methyl-1H-pyrazol-5-yl)ethyl)isoindoline-5-carboxamide] | 500 to 1000 nM | ** (a Y value (shown as**) of 20%<Y≤35%)
7 | CC(C)[C@H](NC(=O)c1ccc2c(c1)CN(C1CCC(=O)NC1=O)C2=O)c1ncccc1Cl (stereo partly drawn) [Example 172, N-((S)-1-(3-chloropyridin-2-yl)-2-methylpropyl)-2-(2,6-dioxopiperidin-3-yl)-1-oxoisoindoline-5-carboxamide] | < 100 nM | * (a Y value (shown as *) of 0<Y≤20%)
8 | COc1cc(F)ccc1[C@@H](NC(=O)c1ccc2c(c1)CN(C1CCC(=O)NC1=O)C2=O)C(F)(F)F (stereo partly drawn) [Example 67, 2-(2,6-dioxopiperidin-3-yl)-1-oxo-N-((R)-2,2,2-trifluoro-1-(4-fluoro-2-methoxyphenyl)ethyl)isoindoline-5-carboxamide] | < 100 nM | * (a Y value (shown as *) of 0<Y≤20%)
9 | O=C1CCC(N2Cc3cc(C(=O)N[C@H](c4ccccc4F)C(F)(F)F)ccc3C2=O)C(=O)N1 (stereo partly drawn) [Example 49, 2-(2,6-dioxopiperidin-3-yl)-1-oxo-N-((R)-2,2,2-trifluoro-1-(2-fluorophenyl)ethyl)isoindoline-5-carboxamide] | < 100 nM | * (a Y value (shown as *) of 0<Y≤20%)
10 | O=C1CCC(N2Cc3c(ccc(C(=O)N[C@H](c4ccccc4OC4CC4)C(F)(F)F)c3F)C2=O)C(=O)N1 (stereo partly drawn) [Example 157, N-((R)-1-(2-cyclopropoxyphenyl)-2,2,2-trifluoroethyl)-2-(2,6-dioxopiperidin-3-yl)-4-fluoro-1-oxoisoindoline-5-carboxamide] | < 100 nM | ** (a Y value (shown as**) of 20%<Y≤35%)
11 | CC1([C@@H](NC(=O)c2ccc3c(c2)CN(C2CCC(=O)NC2=O)C3=O)C(F)(F)F)CCCC1 (stereo partly drawn) [Example 83, 2-(2,6-dioxopiperidin-3-yl)-1-oxo-N-((R)-2,2,2-trifluoro-1-(1-methylcyclopentyl)ethyl)isoindoline-5-carboxamide] | < 100 nM | * (a Y value (shown as *) of 0<Y≤20%)
